For one test, the target named is T1, TRK A, B & C kinase.
T1 construct: fused on or other part: Carna's Trk kinases are usually GST-tagged cytoplasmic domains
The test is described as follows: TRK A, B & C kinase assay (ADP-Glo / HTRF KinEASE-TK). Format: biochemical. Particulars: ADP-Glo or HTRF KinEASE-TK kit, isoform not specified, read-out: IC50 (nM) Enzymatic assay. The method in brief: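 ADP-Glo: TrkA/B/C (0.4/0.5/3 ng/ul) with poly(Glu,Tyr), 1 h at 30° C, luminescence readout. HTRF: TRKA/B/C (0.3/0.1/0.03 ng/ul) at ATP 14.7/4.77/25.6 uM with TK-substrate, compound 0–100 nM for 40 min at RT, then detection by 665/620 ratio. Both give IC50 by curve fit.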
In general terms: ADP-Glo turns the ADP formed in a reaction into a luminescent signal.

The test system of another test is TF-1 cells. Description: Cell proliferation assay (TF-1). Particulars: 10 ng/ml human β-NGF, 72 hours exposure, read-out: IC50 (nM) Cell-based assay (TF-1). As to the method: (§1) Doxorubicin was purchased from Sigma Aldrich (D1515). All compounds were diluted in DMSO (Sigma Aldrich, D2650). AlamarBlue® cell viability reagent was purchased from Thermo Scientific (88952). CellTiter 96® AQueous One Solution Cell proliferation assay was purchased from Promega. KM12-luc cells were obtained from JCRB (National Institute of Health Sciences, Tokyo, Japan). They were maintained in DMEM medium (GIB-11965-118) supplemented with 10% fetal bovine serum (Gibco, 16000-044) and MEM Non-Essential Amino Acids Solution (Thermo Scientific, 11140-050). TF-1 cells were obtained from ATCC. They were maintained in RPMI medium (GIB-A10491) supplemented with 10% fetal bovine serum (Gibco, 16000-044), GM-CSF (Thermo Scientific, 11140-050), and β-NGF (R&D systems). Trypsin/EDTA was purchased from Gibco (GIB-25300-054, 0.05%). 96-well plates were purchased from Corning Inc.
(§2) The proliferation assay was performed for Chemical Compounds 1-61 s in media supplemented with 10% FBS, using AlamarBlue® cell viability reagent or CellTiter 96® AQueous One Solution Cell proliferation assay kit. Cells were cultured in humidified 37° C. incubator with 5% CO2. To evaluate the antiproliferation activity of compounds, TF-1 cells were adjusted to GM-CSF free media (RPMI, 10% FBS, and 1% penicillin-streptomycin) for 16 hr and were seeded in 96-well plates at 30,000 cells/well with medium (RPMI, 10% FBS, 1% penicillin-streptomycin and 10 ng/ml human β-NGF). KM12-luc were seeded at 10,000 cells per well into 96-well plates. After overnight incubation, serial dilutions of compounds were added to triplicate wells, and cells were exposed for 72 hours. The final concentration of DMSO was adjusted to 0.5% in media. Quantitation of cell growth was assessed using two kinds of reagent. 20 ul of AlamarBlue® reagent in an amount equal to 10% of the culture volume was added to each well and were incubated in humidified 37° C. incubator with 5% CO2 for 2 hr. Otherwise, 20 ul of CellTiter 96® reagent was added to each well and were incubated in the same conditions as previously described. Data were plotted, and GI50 values were calculated using GraphPad software. Table 1 below includes the results of the assays.

In a further test the test system is KM12-luc cells. Description: Cell proliferation assay (KM12). The conditions noted are these: 72 hours exposure, read-out: IC50 (nM) Cell-based assay (KM12). As to the method: as §1, §2

Structures are written as SMILES. Bounds are passed on as bounds.

The IC50 is the concentration needed to halve the response being measured. As to `Cc1noc(C)c1-c1cnn2ccc(N3CCCC3c3cc(F)ccc3F)nc12` (stereo not drawn) [Chemical Compound 31, 4-(5-(2-(2,5-difluorophenyl)pyrrolidin-1-yl)pyrazolo[1,5-a]pyrimidin-3-yl)-3,5-dimethylisoxazole], the IC50 on TRK A, B & C kinase was less than 100 nM; in the test on TF-1 cells, less than 1000 nM; in the test with KM12-luc cells, less than 1000 nM.
For the molecule `Cc1nnc(-c2cnn3ccc(N4CCCC4c4cc(F)ccc4F)nc23)[nH]1` (stereo not drawn) [Chemical Compound 32, 5-(2-(2,5-difluorophenyl)pyrrolidin-1-yl)-3-(5-methyl-1H-1,2,4-triazol-3-yl)pyrazolo[1,5-a]pyrimidine], the IC50 is less than 10 nM at TRK A, B & C kinase; less than 100 nM in the test on TF-1 cells; less than 100 nM with KM12-luc cells.
`CCNC(=O)/C=C/c1cnn2ccc(N3CCCC3c3cncc(F)c3)nc12` (stereo not drawn) [Chemical Compound 38, (E)-N-ethyl-3-(5-(2-(5-fluoropyridin-3-yl)pyrrolidin-1-yl)pyrazolo[1,5-a]pyrimidin-3-yl)acrylamide]: the IC50 at TRK A, B & C kinase is less than 10 nM; in the test with TF-1 cells it was less than 1000 nM; in the test with KM12-luc cells, less than 1000 nM.
On to `O=C(/C=C/c1cnn2ccc(N3CCCC3c3cncc(F)c3)nc12)NC1CC1` (stereo not drawn) [Chemical Compound 39, (E)-N-cyclopropyl-3-(5-(2-(5-fluoropyridin-3-yl)pyrrolidin-1-yl)pyrazolo[1,5-a]pyrimidin-3-yl)acrylamide], for which the 50% inhibitory concentration (IC50) was less than 10 nM at TRK A, B & C kinase; less than 1000 nM with TF-1 cells; less than 1000 nM with KM12-luc cells.
Consider `CN(C)C(=O)/C=C/c1cnn2ccc(N3CCCC3c3cncc(F)c3)nc12` (stereo not drawn) [Chemical Compound 40, (E)-3-(5-(2-(5-fluoropyridin-3-yl)pyrrolidin-1-yl)pyrazolo[1,5-a]pyrimidin-3-yl)-N,N-dimethylacryl-amide], for which the half-inhibitory concentration (IC50) on TRK A, B & C kinase was less than 10 nM; with TF-1 cells, less than 100 nM; with KM12-luc cells, less than 1000 nM.
The matching figures for `CCNC(=O)/C=C/c1cnn2ccc(N3CCCC3c3cc(F)ccc3F)nc12` (stereo not drawn) [Chemical Compound 41, (E)-3-(5-(2-(2,5-difluorophenyl)pyrrolidin-1-yl)pyrazolo[1,5-a]pyrimidin-3-yl)-N-ethylacrylamide]: less than 10 nM, less than 100 nM and less than 100 nM.
For the molecule `CC(C)NC(=O)/C=C/c1cnn2ccc(N3CCCC3c3cc(F)ccc3F)nc12` (stereo not drawn) [Chemical Compound 42, (E)-3-(5-(2-(2,5-difluorophenyl)-pyrrolidin-1-yl)pyrazolo[1,5-a]pyrimidin-3-yl)-N-isopropylacrylamide], the IC50 on TRK A, B & C kinase is less than 10 nM; in the test with TF-1 cells, less than 100 nM; in the test with KM12-luc cells, less than 100 nM.
`O=C(/C=C/c1cnn2ccc(N3CCCC3c3cc(F)ccc3F)nc12)NC1CC1` (stereo not drawn) [Chemical Compound 43, (E)-N-cyclopropyl-3-(5-(2-(2,5-difluorophenyl)pyrrolidin-1-yl)pyrazolo[1,5-a]pyrimidin-3-yl)acrylamide]: the IC50 at TRK A, B & C kinase is less than 10 nM; in the test with TF-1 cells it was less than 100 nM; in the test on KM12-luc cells, less than 100 nM.
For the molecule `CC(C)(C)NC(=O)/C=C/c1cnn2ccc(N3CCCC3c3cc(F)ccc3F)nc12` (stereo not drawn) [Chemical Compound 44, (E)-N-tert-butyl-3-(5-(2-(2,5-difluorophenyl)pyrrolidin-1-yl)pyrazolo-[1,5-a]pyrimidin-3-yl)acrylamide], the IC50 at TRK A, B & C kinase is less than 10 nM; with TF-1 cells it was less than 100 nM; in the test on KM12-luc cells it was less than 100 nM.
In the case of `CN(C)C(=O)/C=C/c1cnn2ccc(N3CCCC3c3cc(F)ccc3F)nc12` (stereo not drawn) [Chemical Compound 45, (E)-3-(5-(2-(2,5-difluorophenyl)pyrrolidin-1-yl)pyrazolo[1,5-a]pyrimidin-3-yl)-N,N-dimethylacrylamide], the IC50 was less than 10 nM on TRK A, B & C kinase; less than 100 nM with TF-1 cells; less than 100 nM with KM12-luc cells.
Consider `COCCNC(=O)/C=C/c1cnn2ccc(N3CCCC3c3cc(F)ccc3F)nc12` (stereo not drawn) [Chemical Compound 46, (E)-3-(5-(2-(2,5-difluorophenyl)pyrrolidin-1-yl)pyrazolo[1,5-a]pyrimidin-3-yl)-N-(2-methoxyethyl)-acrylamide], for which the 50% inhibitory concentration (IC50) on TRK A, B & C kinase was less than 10 nM; in the test on TF-1 cells, less than 100 nM; in the test with KM12-luc cells it was less than 100 nM.
As to `O=C(/C=C/c1cnn2ccc(N3CCCC3c3cc(F)ccc3F)nc12)N1CC(O)C1` (stereo not drawn) [Chemical Compound 47, (E)-3-(5-(2-(2,5-difluorophenyl)pyrrolidin-1-yl)pyrazolo[1,5-a]pyrimidin-3-yl)-1-(3-hydroxyazetidin-1-yl)prop-2-en-1-one], the IC50 at TRK A, B & C kinase is less than 10 nM; in the test with TF-1 cells it was less than 100 nM; in the test on KM12-luc cells, less than 100 nM.
For the molecule `O=C(/C=C/c1cnn2ccc(N3CCC[C@@H]3c3cc(F)ccc3F)nc12)NCCO` [Chemical Compound 48, (R,E)-3-(5-(2-(2,5-difluorophenyl)pyrrolidin-1-yl)pyrazolo[1,5-a]pyrimidin-3-yl)-N-(2-hydroxyethyl)-acrylamide], the IC50 at TRK A, B & C kinase was less than 10 nM; in the test with TF-1 cells it was less than 100 nM; with KM12-luc cells, less than 100 nM.
Turning to `O=C(/C=C/c1cnn2ccc(N3CCC[C@@H]3c3cc(F)ccc3F)nc12)N1CCOCC1` [Chemical Compound 49, (R,E)-3-(5-(2-(2,5-difluorophenyl)pyrrolidin-1-yl)pyrazolo[1,5-a]pyrimidin-3-yl)-1-morpholinoprop-2-en-1-one], the IC50 on TRK A, B & C kinase is less than 10 nM; with TF-1 cells it was less than 10 nM; in the test with KM12-luc cells it was less than 100 nM.
`O=C(/C=C/c1cnn2ccc(N3CCC[C@@H]3c3cc(F)ccc3F)nc12)N1CCNCC1` [Chemical Compound 50, (R,E)-3-(5-(2-(2,5-difluorophenyl)pyrrolidin-1-yl)pyrazolo[1,5-a]pyrimidin-3-yl)-1-(piperazin-1-yl)prop-2-en-1-one]: the IC50 at TRK A, B & C kinase was less than 10 nM; with TF-1 cells, less than 100 nM; in the test with KM12-luc cells, less than 10 nM.
Turning to `O=C(C#Cc1cnn2ccc(N3CCCC3c3cc(F)ccc3F)nc12)N1CCOCC1` (stereo not drawn) [Chemical Compound 61, 3-(5-(2-(2,5-difluorophenyl)pyrrolidin-1-yl)pyrazolo[1,5-a]pyrimidin-3-yl)-1-morpholinoprop-2-yn-1-one], the IC50 was less than 10 nM at TRK A, B & C kinase; less than 100 nM in the test with TF-1 cells; less than 100 nM in the test with KM12-luc cells.
